Laboratory results from patent US12653800B2, “Small molecule inhibitors of TLR2 signaling” (University of Maryland, Baltimore, priority 2015, dated 2026).

Tests used:
Format in all cases: cell-based
TLR4 = target: T1, TLR4 (Mus musculus, UniProt Q9QUK6); assay: Cytokine mRNA in murine peritoneal macrophages stimulated with TLR4 agonists (LPS, HKEC)
T1 sequence (Q9QUK6 26-835): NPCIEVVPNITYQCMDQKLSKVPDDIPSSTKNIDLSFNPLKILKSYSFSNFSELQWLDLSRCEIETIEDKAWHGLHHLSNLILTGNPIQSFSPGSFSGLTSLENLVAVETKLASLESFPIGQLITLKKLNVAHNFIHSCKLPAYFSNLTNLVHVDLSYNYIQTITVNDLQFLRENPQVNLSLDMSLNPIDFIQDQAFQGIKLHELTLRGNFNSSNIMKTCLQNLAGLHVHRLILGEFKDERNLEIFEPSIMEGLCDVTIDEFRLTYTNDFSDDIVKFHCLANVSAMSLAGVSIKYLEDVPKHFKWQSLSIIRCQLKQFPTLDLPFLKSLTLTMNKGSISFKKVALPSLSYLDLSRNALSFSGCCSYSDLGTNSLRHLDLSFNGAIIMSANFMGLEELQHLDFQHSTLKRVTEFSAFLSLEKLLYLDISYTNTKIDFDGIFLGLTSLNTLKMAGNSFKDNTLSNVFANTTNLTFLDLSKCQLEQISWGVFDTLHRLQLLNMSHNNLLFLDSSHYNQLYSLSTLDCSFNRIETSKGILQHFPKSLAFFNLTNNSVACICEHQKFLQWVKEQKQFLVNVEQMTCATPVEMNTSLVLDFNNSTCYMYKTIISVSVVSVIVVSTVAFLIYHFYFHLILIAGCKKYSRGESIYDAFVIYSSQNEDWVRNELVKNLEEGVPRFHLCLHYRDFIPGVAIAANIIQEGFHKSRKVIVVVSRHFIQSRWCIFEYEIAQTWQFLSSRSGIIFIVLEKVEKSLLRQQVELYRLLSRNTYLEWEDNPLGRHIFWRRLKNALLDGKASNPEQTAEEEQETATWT
T1 sequence (Q9JHF9 19-160 partner): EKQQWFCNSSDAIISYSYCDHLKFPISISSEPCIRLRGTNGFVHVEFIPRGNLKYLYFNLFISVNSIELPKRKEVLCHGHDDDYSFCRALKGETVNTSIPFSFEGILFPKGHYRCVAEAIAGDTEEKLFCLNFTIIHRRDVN

TLR2/1 [1] = target: TLR2/1 (Mus musculus, UniProt Q9QUN7); assay: Cytokine mRNA/protein in murine peritoneal macrophages stimulated with TLR2/1 agonists (P3C, LTA SA)
TLR2/1 (Mus musculus, UniProt Q9QUN7), sequence (Q9QUN7 25-784): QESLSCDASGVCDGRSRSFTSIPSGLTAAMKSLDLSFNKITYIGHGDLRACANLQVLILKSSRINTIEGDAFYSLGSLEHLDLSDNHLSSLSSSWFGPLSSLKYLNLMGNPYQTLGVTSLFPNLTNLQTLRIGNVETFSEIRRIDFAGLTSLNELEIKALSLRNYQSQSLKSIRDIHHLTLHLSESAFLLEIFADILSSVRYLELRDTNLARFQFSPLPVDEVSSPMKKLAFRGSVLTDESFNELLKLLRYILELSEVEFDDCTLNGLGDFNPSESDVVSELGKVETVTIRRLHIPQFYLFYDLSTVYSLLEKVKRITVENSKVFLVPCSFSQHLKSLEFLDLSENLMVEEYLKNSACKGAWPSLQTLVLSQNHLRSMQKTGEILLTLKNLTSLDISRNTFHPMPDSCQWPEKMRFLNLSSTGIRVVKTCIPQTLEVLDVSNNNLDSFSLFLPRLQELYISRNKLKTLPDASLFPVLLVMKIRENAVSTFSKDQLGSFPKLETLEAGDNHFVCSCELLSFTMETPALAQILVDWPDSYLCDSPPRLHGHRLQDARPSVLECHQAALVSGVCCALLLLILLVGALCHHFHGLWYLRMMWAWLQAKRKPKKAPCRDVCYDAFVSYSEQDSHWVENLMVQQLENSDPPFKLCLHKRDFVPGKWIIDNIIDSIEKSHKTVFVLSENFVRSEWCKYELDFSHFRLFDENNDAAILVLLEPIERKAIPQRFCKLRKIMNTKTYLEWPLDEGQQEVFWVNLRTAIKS

TLR2/6 [2] = target: TLR2/6 (Mus musculus, UniProt Q9QUN7); assay: Cytokine mRNA in murine peritoneal macrophages stimulated with TLR2/6 agonists (P2C, zymosan)
TLR2/6 (Mus musculus, UniProt Q9QUN7), sequence (Q9QUN7 25-784): as above

TLR2/1 [3] = target: T2, TLR2/1 (Homo sapiens, UniProt O60603); assay: NF-κβ (ELAM)-luciferase reporter assay in transiently transfected HEK293T cells, P3C; design: expressed in transfected cells; host or cells: HEK293T, transient transfection (Superfect); details: P3C 50 ng/mL 5 hrs; for IC50: NF-κβ reporter assay in HEK293T cells, 1 μM-250 μM, read-out: IC50 for human TLR2/1 signaling
T2 sequence (O60603 21-784): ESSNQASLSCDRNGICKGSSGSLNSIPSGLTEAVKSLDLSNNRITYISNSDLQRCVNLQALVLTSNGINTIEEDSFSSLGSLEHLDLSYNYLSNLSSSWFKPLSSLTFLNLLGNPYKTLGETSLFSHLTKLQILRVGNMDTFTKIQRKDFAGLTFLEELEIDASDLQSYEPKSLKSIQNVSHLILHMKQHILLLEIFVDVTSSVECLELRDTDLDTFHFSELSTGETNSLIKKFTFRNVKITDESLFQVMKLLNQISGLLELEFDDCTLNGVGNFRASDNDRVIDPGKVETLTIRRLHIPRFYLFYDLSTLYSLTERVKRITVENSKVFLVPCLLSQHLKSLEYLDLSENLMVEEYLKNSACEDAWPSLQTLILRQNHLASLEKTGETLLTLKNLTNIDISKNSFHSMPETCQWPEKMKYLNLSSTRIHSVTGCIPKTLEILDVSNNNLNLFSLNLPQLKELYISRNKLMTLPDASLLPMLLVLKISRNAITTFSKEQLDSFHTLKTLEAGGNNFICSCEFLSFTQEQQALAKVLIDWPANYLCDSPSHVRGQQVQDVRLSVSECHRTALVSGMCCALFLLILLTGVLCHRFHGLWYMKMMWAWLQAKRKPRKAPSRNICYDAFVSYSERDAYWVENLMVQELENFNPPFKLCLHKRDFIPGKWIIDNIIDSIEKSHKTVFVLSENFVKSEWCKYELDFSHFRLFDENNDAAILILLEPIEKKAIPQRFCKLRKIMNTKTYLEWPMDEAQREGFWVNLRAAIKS
Protocol: (§1) FIG. 8. C29 inhibits hTLR2/1- and hTLR2/6-induced NF-κβ activation. (A, B) HEK293T cells were transiently transfected with reporter constructs for ELAM-luciferase, Renilla-luciferase, and either pcDNA3.1 or pcDNA3-YFP-hTLR2. Cells were pretreated for 1 hr with media, vehicle (65 μM NaOH), or C29 (50 μM) and treated with P3C or P2C (50 ng/mL) for 5 hrs in the presence of media, vehicle, or C29. Lysates were prepared and the dual-luciferase assay performed. Results are representative of 3 independent experiments each carried out in duplicate (**, p≤0.01; ***, p≤0.001).
(§2) FIG. 9. C29 is species-specific and blocks human TLR2/6 signaling, but not murine TLR2/6 signaling. (A-D) HEK293T cells were transiently transfected with reporter constructs for ELAM-luciferase, Renilla-luciferase, and pcDNA3.1 in combination with/without pcDNA3-YFP-hTLR2, pFLAG-CMV1-hTLR1, pcDNA3-CFP-hTLR6, pcDNA3.1-mTLR2-CFP, pcDNA3.1-mTLR1-YFP, or pcDNA3.1-mTLR6-CFP. Cells were pretreated for 1 hr with media, vehicle (65 μM NaOH), or C29 (50 μM) and then treated with P3C or P2C (50 ng/mL) for 5 hrs in the presence of media, vehicle, or C29. Lysates were prepared and the dual-luciferase assay performed. Panels A and B represent the mean±SEM from 3 independent experiments and panels C and D represent the mean±SEM from 2 independent experiments each carried out in duplicate (*, p≤0.05; **, p≤0.01).
FIG. 12. C29 L blocks human TLR2/1 and TLR2/6 signaling comparably to C29 in HEK293T cells. (A-D) HEK293T cells were transiently transfected with reporter constructs for ELAM-luciferase, Renilla-luciferase, and pcDNA3-YFP-hTLR2. Cells were pretreated for 1 hr with C29 or C29L (1 μM-250 μM) and treated with P3C or P2C (50 ng/mL) for 5 hrs in the presence of C29 or C29L. […]
HEK293T cells were cultured and plated overnight in 12-well tissue culture plates (2×10^5 cells/well). […] Cells were lysed in a passive lysis buffer (Promega, Madison, WI) and firefly luciferase and Renilla luciferase activities were measured using the dual luciferase reporter assay system (Promega, Madison, WI). […]

TLR2/6 [4] = target: TLR2/6 (Homo sapiens, UniProt O60603); assay: NF-κβ (ELAM)-luciferase reporter assay in transiently transfected HEK293T cells, P2C; design: expressed in transfected cells; host or cells: HEK293T, transient transfection (Superfect); details: P2C 50 ng/mL 5 hrs; for IC50: NF-κβ reporter assay in HEK293T cells, 1 μM-250 μM, read-out: IC50 for human TLR2/6 signaling
TLR2/6 (Homo sapiens, UniProt O60603), sequence (O60603 21-784): as above
Protocol: as §1, §2
FIG. 12. C29 L blocks human TLR2/1 and TLR2/6 signaling comparably to C29 in HEK293T cells. (A-D) HEK293T cells were transiently transfected with reporter constructs for ELAM-luciferase, Renilla-luciferase, and pcDNA3-YFP-hTLR2. Cells were pretreated for 1 hr with C29 or C29L (1 μM-250 μM) and treated with P3C or P2C (50 ng/mL) for 5 hrs in the presence of C29 or C29L. Lysates were prepared and dual-luciferase assay performed. Data is representative of 2 independent experiments each carried out in duplicate.
HEK293T cells were cultured and plated overnight in 12-well tissue culture plates (2×10^5 cells/well). Transfection mixtures consisted of pcDNA3-YFP-hTLR2 or pcDNA3.1 control vector (1 μg/well each), pELAM (NF-κB)-luciferase (0.2 μg/well), and pRL-TK-Renilla luciferase (0.05 μg/well). Transfection was carried out using Superfect transfection reagent, cells were recovered for 48 h, and treated for 5 h with medium or stimuli in the presence/absence of C29. Cells were lysed in a passive lysis buffer (Promega, Madison, WI) and firefly luciferase and Renilla luciferase activities were measured using the dual luciferase reporter assay system (Promega, Madison, WI). […]

TLR2/1 [5] = target: T2, TLR2/1; assay: P3C-induced IL-8 mRNA (qRT-PCR) in HEK-TLR2 stable transfectants; design: expressed in transfected cells; details: for percent inhibition, TLR2/1 versus TLR2/6 stimulation: HEK-TLR2 cells, human TLR2 signaling
[6] = HEK293T expressing human TLR2, C29 50 μM

Question: What does the source list for `COc1cccc(C=O)c1O` [Compound C29L, ortho-vanillin]?
Answer: TLR4 signaling pathway (TNF-α mRNA) (TLR4; 25 μM or 50 μM, LPS 100 ng/mL 1 hr): no effect; TLR2/1-induced TNF-α gene expression (TLR2/1 [1]; murine macrophages, 25 μM or 50 μM, P3C 50 ng/mL 1 hr): dose-dependently inhibited; TLR2/6 signaling pathway (TNF-α mRNA) (TLR2/6 [2]; 25 μM or 50 μM, P2C 100 ng/mL 1 hr): no effect; IC50 (TLR2/1 [3]): 24.2 µM; IC50 (TLR2/6 [4]): 37.2 µM; percent inhibition, TLR2/1 versus TLR2/6 stimulation (TLR2/1 [5]): consistently greater when TLR2/1 is stimulated

Question: What does the source list for `COc1cccc(/C=N/c2cccc(C(=O)O)c2C)c1O` [Compound C29]?
Answer: heat-killed Escherichia coli (HKEC)-induced IL-1β mRNA (TLR4; C29 50 μM, MOI=0.1, 4 hrs, signals predominately through TLR4): not blocked; P3C-induced IL-1β mRNA (TLR2/1 [1]; murine macrophages, C29 50 μM, P3C 50 ng/mL 3 hrs): specifically blocked; LTA SA-induced IL-1β mRNA (TLR2/1 [1]; murine macrophages, C29 50 μM, S. aureus LTA 1 μg/mL 3 hrs): specifically blocked; P3C-induced TNF-α mRNA (TLR2/1 [1]; murine peritoneal macrophages, C29 25 μM or 50 μM, P3C 50 ng/mL 1 hr): significantly reduced; P3C-induced IL-12 p40 protein (ELISA) (TLR2/1 [1]; murine peritoneal macrophages, C29 50 μM, P3C 50 ng/mL 4 or 6 hrs): significantly reduced; zymosan-induced IL-1β mRNA (TLR2/6 [2]; C29 50 μM, zymosan 10 μg/mL 3 hrs): did not inhibit; P3C-induced NF-κβ-luciferase activity (TLR2/1 [3]; [6]): inhibited; IC50 (TLR2/1 [3]): 19.7 µM; P2C-induced NF-κβ-luciferase activity (TLR2/6 [4]; [6]): inhibited; hTLR2/6-induced NF-κβ-luciferase activity (TLR2/6 [4]; HEK293T transfected with human TLR2 and TLR6, C29 50 μM): significantly inhibited; IC50 (TLR2/6 [4]): 37.6 µM; P3C-induced IL-8 mRNA (TLR2/1 [5]; C29 10 μM or 50 μM, P3C 200 ng/mL 1 hr, HEK-TLR2 stable transfectants): blocked P3C- and P2C-induced IL-8 mRNA dose-dependently; percent inhibition, TLR2/1 versus TLR2/6 stimulation (TLR2/1 [5]): consistently greater when TLR2/1 is stimulated
